Columns and labels:
TRIM29 = molecular target: T1, TRIM29 (Homo sapiens, UniProt Q14134); assay: ITDRF in A431 cells, TRIM29; assay type: binding; conditions: FIG. 12
T1 construct: endogenous in cells; host or cells: A431
T1 sequence (Q14134 1-588): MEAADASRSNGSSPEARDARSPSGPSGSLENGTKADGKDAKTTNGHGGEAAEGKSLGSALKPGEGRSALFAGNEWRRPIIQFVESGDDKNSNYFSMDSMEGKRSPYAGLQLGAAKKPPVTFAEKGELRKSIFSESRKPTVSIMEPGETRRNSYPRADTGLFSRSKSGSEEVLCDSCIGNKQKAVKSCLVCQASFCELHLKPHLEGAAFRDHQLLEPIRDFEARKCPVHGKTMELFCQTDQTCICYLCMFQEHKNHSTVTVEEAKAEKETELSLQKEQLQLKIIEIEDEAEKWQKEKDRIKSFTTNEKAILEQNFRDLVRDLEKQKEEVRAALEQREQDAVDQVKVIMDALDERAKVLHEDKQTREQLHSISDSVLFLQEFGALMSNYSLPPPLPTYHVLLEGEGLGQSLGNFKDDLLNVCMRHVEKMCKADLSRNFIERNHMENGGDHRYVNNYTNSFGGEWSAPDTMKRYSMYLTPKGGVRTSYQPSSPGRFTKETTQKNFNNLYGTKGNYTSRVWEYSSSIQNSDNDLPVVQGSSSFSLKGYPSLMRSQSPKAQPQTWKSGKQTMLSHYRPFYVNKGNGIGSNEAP
Source text: (§1) It was verified whether the oxopiperazine derivative of the present invention was bound to STING among STING and TRIM29 to inhibit interaction thereof, based on the compound of Formula 1, by the cellular thermal shift assay (CETSA) and the isothermal dose response fingerprint (ITDRF) which were major technologies for verifying the interaction between small molecule compounds and target proteins. (D. M. Molinaetal., Science 2013, 341, 84-87.)
(§2) To verify the target of the compound of Formula 1 using the CETSA technique, the human A431 cell lines and mouse Raw264.7 cell lines were seeded on a 100-mm or 150-mm culture dish and cultured for one day. […] Afterwards, centrifugation was performed at 20000 g for 20 minutes at 4° C., the supernatant was transferred to a new container, and each concentration was measured by using the Micro BCA™ protein assay kit (ThermoFisher) according to the protocol of the manufacturer. The concentration of each sample was equally adjusted by using the RIPA lysis buffer, the 5× SDS-PAGE loading buffer (Biosesang) was added according to the ratio of the manufacturer, and the resultant was treated at 95° C. for 5 minutes and analyzed by using the Western blotting method described above.

STING [1] = molecular target: STING (Homo sapiens, UniProt Q86WV6); assay: CETSA and ITDRF in A431 cells, STING; assay type: binding; parameters: endogenous in cells; host or cells: A431
Chain of STING (Homo sapiens, UniProt Q86WV6) (Q86WV6 whole entry H232R): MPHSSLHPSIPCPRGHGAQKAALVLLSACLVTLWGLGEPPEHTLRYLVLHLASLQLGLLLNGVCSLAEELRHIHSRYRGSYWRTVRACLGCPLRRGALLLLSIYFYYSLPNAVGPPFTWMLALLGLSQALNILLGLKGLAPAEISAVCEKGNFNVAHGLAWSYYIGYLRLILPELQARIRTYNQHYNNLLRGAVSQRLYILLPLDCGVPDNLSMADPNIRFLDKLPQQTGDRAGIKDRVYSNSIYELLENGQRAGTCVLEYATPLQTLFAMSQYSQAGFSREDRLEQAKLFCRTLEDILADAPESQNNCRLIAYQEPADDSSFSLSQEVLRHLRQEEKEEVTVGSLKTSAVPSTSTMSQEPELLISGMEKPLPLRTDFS
Source text: as §1, §2

STING [2] = molecular target: T2, STING (Mus musculus, UniProt Q3TBT3); assay: Flow cytometry of intracellular STING in Raw264.7 cells; assay type: cell-based; parameters: endogenous in cells; host or cells: Raw264.7; conditions: 24 hours, FIG. 15
T2 sequence (Q3TBT3 1-378): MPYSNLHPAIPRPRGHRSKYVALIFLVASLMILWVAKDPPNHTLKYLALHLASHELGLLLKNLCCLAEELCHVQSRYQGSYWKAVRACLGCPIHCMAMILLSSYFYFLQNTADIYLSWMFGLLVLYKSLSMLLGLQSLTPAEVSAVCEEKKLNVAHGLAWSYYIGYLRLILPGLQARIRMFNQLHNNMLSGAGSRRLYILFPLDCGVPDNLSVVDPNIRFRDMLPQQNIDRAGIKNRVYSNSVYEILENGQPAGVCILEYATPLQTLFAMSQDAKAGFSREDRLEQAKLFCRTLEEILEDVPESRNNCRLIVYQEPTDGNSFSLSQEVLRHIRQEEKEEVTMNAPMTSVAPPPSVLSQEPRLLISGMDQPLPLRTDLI
Method: It was verified whether the oxopiperazine derivatives increased the efficacy of STING agonists and other cancer immunotherapy, including immune checkpoint inhibitors. First, it was verified through flow cytometry and Western blotting whether the oxopiperazine derivatives increase the amount of STING.
To measure the intracellular amount of STING through flow cytometry, Raw264.7 cells were seeded in a transparent 6-well plate and cultured for one day. Thereafter, the cells were treated with a solution, in which the compound of Formula 1 is diluted in a culture medium without FBS, and cultured for 24 hours. […] After centrifugation of the collected cells, the supernatant was removed, the cells were redistributed in FACS solution (Hank's balanced salt solution (HBSS) including 2% horse serum and 0.05% NaN3), and the number of cells was measured. […] Finally, the Triton solution was added, centrifugation was performed, the supernatant was removed, the cells were redistributed into 200 μL of the Triton solution and analyzed by using a FACSCalibur instrument from BD Bioscience, and the results were quantitatively analyzed by using the FlowJo program from Tree Star, Inc.

**Q.** What does the source list for `COc1ccc(CC2=CN(c3ccc(C(=O)NC[C@H]4CCCO4)cc3[N+](=O)[O-])[C@H](C(C)C)C(=O)N2Cc2ccc(O)cc2)cc1` [Formula 1, 4-((R)-4-(4-hydroxybenzyl)-2-isopropyl-5-(4-methoxybenzyl)-3-oxo-3,4-dihydropyrazin-1 (2H)-yl)-3-nitro-N-(((R)-tetrahydrofuran-2-yl)methyl)benzamide]?
**A.** ITDRF effect on TRIM29 (TRIM29): without affecting TRIM29; CETSA thermal stability of STING (STING [1]; FIG. 11): induced thermal destabilization by selective binding only to STING; ITDRF thermal stability of STING (STING [1]; FIG. 12): reduced the thermal stability of STING at high concentrations in a concentration-dependent manner; fluorescence labeling intensity of intracellular STING (STING [2]): increased in a concentration-dependent manner

Reference: patent publication US20250127778A1, “CANCER IMMUNOTHERAPY COMPOSITION CONTAINING INTERACTION INHIBITOR OF STING AND TRIM29 AS ACTIVE INGREDIENT” (SPARK BIOPHARMA, INC, priority 2021, published 2025)
